For one assay, the target named is T1, human EHMT2 913-1193 (Homo sapiens, UniProt Q96KQ7).
T1 construct: recombinant purified human EHMT2 913-1193, Viva; purchased Viva
T1 sequence (Q96KQ7 913-1193): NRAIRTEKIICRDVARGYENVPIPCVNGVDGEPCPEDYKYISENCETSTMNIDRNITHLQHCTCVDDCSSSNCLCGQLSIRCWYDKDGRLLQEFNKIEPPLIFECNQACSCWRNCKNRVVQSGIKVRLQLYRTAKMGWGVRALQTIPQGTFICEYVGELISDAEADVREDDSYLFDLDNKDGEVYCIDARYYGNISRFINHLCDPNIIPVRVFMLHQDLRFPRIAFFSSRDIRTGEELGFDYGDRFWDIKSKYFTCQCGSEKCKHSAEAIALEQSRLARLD
In words: EHMT2 enzyme assay on histone peptide substrate (EHMT2 PEP). The class given is biochemical. Conditions: read-out: EHMT2 PEP (IC50 μM). The procedure, abridged: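 Radiometric methyltransferase assay: 0.031 nM EHMT2 913-1193 preincubated 30 min with compound (10-point 3-fold series, top final 50 μM, 2% DMSO) in 20 mM Bicine pH 7.5, 1 mM TCEP. Biotinylated histone peptide methylated with ^3H-SAM for 60 min at room temperature, quenched with unlabeled SAM, captured on streptavidin Flashplates and counted.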

In another assay the target is T2, EHMT1 (Homo sapiens, UniProt Q9H9B1).
T2 sequence (Q9H9B1 1-1298): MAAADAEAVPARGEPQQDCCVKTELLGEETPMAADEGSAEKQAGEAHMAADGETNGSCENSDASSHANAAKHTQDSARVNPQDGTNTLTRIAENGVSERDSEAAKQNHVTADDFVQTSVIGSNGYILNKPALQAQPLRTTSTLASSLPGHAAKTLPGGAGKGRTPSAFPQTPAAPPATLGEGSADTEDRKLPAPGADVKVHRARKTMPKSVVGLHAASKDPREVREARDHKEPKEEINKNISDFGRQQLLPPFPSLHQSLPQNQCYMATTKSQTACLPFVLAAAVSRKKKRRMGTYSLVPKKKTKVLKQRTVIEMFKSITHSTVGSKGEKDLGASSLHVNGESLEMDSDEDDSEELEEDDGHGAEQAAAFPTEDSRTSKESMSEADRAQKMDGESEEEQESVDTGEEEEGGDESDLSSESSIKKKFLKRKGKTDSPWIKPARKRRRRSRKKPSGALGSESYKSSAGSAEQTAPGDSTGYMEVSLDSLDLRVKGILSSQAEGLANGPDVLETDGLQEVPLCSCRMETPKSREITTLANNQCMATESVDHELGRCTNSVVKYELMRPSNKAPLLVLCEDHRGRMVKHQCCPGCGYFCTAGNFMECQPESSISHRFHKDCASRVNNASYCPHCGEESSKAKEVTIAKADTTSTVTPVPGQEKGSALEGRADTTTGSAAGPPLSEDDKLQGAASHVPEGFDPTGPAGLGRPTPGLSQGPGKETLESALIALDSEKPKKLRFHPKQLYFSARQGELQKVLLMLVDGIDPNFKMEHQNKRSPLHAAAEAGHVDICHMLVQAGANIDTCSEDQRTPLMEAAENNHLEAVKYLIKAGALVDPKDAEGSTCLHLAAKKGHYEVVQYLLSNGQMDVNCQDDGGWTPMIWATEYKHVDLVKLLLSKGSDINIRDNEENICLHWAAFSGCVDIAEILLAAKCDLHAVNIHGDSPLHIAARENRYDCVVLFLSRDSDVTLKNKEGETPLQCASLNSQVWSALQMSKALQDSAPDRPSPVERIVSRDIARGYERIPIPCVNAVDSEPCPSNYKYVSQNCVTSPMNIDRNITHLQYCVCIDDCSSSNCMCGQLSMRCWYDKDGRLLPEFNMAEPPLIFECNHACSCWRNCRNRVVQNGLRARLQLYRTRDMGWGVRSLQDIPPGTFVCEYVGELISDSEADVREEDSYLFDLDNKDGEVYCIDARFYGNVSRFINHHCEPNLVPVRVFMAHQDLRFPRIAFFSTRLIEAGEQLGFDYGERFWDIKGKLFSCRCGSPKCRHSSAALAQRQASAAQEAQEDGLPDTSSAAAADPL
In words: EHMT1 enzyme assay on peptide substrate (EHMT1 PEP). Type of assay: biochemical. Conditions: read-out: EHMT1 PEP (IC50 μM).

This is an account of results in patent US20210198277A1, “AMINE-SUBSTITUTED ARYL OR HETEROARYL COMPOUNDS” (Epizyme, Inc., priority 2016, published 2021).

Each structure is given as a SMILES string. Read-outs that look alike come from different tables or passages of the source. A value given as a limit tells only on which side of the number the result lay.

By IC50 is commonly meant the concentration needed to halve the response being measured. For `CNc1ccnc(Nc2ccc(OC)c(OCC3CCN(CCOC)C3)c2)n1` (stereo not drawn) [Compound 410, N^2-(4-methoxy-3-((1-(2-methoxyethyl)pyrrolidin-3-yl)methoxy)phenyl)-N^4-methylpyrimidine-2,4-diamine], the half-maximal inhibitory concentration (IC50) at human EHMT2 913-1193 (Table III) and on EHMT1 (Table III) was 1 to 10 µM each time.
As to `COc1ccc(Nc2nccc(NCC(=O)N3CCOCC3)n2)cc1OCCCN1CCCC1` [Compound 51], the half-maximal inhibitory concentration (IC50) on human EHMT2 913-1193 (Table II) and on EHMT1 (Table II) was 0.1 to 1 µM throughout.
With `CNc1cc(C)nc(Nc2ccc(F)c(OCCCN3CCCC3)c2)n1` [Compound 356], the half-maximal inhibitory concentration (IC50) at human EHMT2 913-1193 (Table III) and on EHMT1 (Table III) was > 10 µM throughout.
`CNc1ccnc(Nc2ccc(OC)c(OCC3CCN(C)C3)c2)n1` (single isomer, unassigned) [Compound 415]: the IC50 on human EHMT2 913-1193 (Table III) is 1 to 10 µM; on EHMT1 (Table III), 0.1 to 1 µM.
In the same order, the values of `CNc1cc(Nc2cc(OCCCN3CCCC3)c(OC)cn2)ccn1` [Compound 372] are < 0.1 µM and < 0.1 µM.
In the same order, the values of `CNc1nc(Nc2ccc(OC)c(OCCCN3CCCC3)c2)ncc1C#N` [Compound 357] are > 10 µM and > 10 µM.
With `CNc1cncc(Nc2ccc(OC)c(OCCCN3CCCC3)c2)n1` [Compound 371], the concentration for half-maximal inhibition (IC50) on human EHMT2 913-1193 (Table III) and at EHMT1 (Table III) was 1 to 10 µM throughout.
Take `CNc1nc(Nc2ccc(OC)c(OCCCN3CCCC3)c2)ncc1C(F)(F)F` [Compound 358]: the IC50 on human EHMT2 913-1193 (Table III) and at EHMT1 (Table III) was > 10 µM in each case.
Turning to `CNc1cc(C)nc(Nc2cccc(OCCCN3CCCC3)c2)n1` [Compound 391], the half-maximal inhibitory concentration (IC50) on human EHMT2 913-1193 (Table III) and on EHMT1 (Table III) was 0.1 to 1 µM each time.
`CNc1cc(C)nc(Nc2ccc(OC)c(OCC3CCN(C)C3)c2)n1` (single isomer, unassigned) [Compound 417]: the 50% inhibitory concentration (IC50) on human EHMT2 913-1193 (Table III) and at EHMT1 (Table III) was 0.1 to 1 µM in each case.
Consider `CCc1cc(NC)nc(Nc2ccc(OC)c(OCCCN3CC[C@@H](F)C3)c2)n1` [Compound 385], for which the half-maximal inhibitory concentration (IC50) at human EHMT2 913-1193 (Table III) and at EHMT1 (Table III) was 0.1 to 1 µM each time.
Turning to `CNc1ccnc(Nc2cccc(N3CCC(N)C3)c2)n1` (stereo not drawn) [Compound 400], the IC50 on human EHMT2 913-1193 (Table III) was 1 to 10 µM; on EHMT1 (Table III), > 10 µM.
As to `CNc1ccnc(Nc2ccc(OC)c(OCC3CCN(C)C3)c2)n1` (single isomer, unassigned) [Compound 416], the IC50 on human EHMT2 913-1193 (Table III) and at EHMT1 (Table III) was < 0.1 µM throughout.
Take `CCc1cc(NC)nc(Nc2ccc(OC)c(OCCCN3CCCC3)c2)n1` [Compound 364]: the IC50 on human EHMT2 913-1193 (Table III) and on EHMT1 (Table III) was < 0.1 µM in each case.
As for `CNc1ccnc(Nc2ccc3cn(CCN(C)C)nc3c2)n1` [Compound 404, N^2-(2-(2-(dimethylamino)ethyl)-2H-indazol-6-yl)-N^4-methylpyrimidine-2,4-diamine], the concentration for half-maximal inhibition (IC50) on human EHMT2 913-1193 (Table III) and on EHMT1 (Table III) was > 10 µM in each case.
On to `CNc1ccnc(Nc2ccc(OC)c(OCCCN3CC(O)C3)c2)n1` [Compound 414, 1-(3-(2-methoxy-5-((4-(methylamino)pyrimidin-2-yl)amino)phenoxy)propyl)azetidin-3-ol], for which the IC50 on human EHMT2 913-1193 (Table III) and at EHMT1 (Table III) was < 0.1 µM throughout.
In the case of `CNc1ccnc(Nc2ccc(OC)c(COCCN3CCCC3)c2)n1` [Compound 382], the concentration for half-maximal inhibition (IC50) on human EHMT2 913-1193 (Table III) and at EHMT1 (Table III) was 0.1 to 1 µM in each case.
On to `CNc1ccnc(Nc2ccc(OC)c(OCCCN3CCCCC3)c2)n1` [Compound 390], for which the IC50 at human EHMT2 913-1193 (Table III) and on EHMT1 (Table III) was 0.1 to 1 µM each time.
Consider `CNc1ccnc(Nc2ccc(OC)c(OCC3CCN(C)C3)c2)n1` (stereo not drawn) [Compound 393], for which the IC50 at human EHMT2 913-1193 (Table III) was 0.1 to 1 µM; on EHMT1 (Table III) it was < 0.1 µM.
In the same order, the values of `CNc1ccnc(Nc2ccc(OC)c(OCCN3CCOCC3)c2)n1` [Compound 361] are 1 to 10 µM and 1 to 10 µM.
In the same order, the values of `CNc1ccnc(Nc2ccc3c(C)nn(CCCN(C)C)c3c2)n1` [Compound 389] are > 10 µM and > 10 µM.
Consider `CCCN1CCC(COc2cc(Nc3nccc(NC)n3)ccc2OC)C1` (stereo not drawn) [Compound 420, N^2-(4-methoxy-3-((1-propylpyrrolidin-3-yl)methoxy)phenyl)-N^4-methylpyrimidine-2,4-diamine], for which the IC50 on human EHMT2 913-1193 (Table III) and at EHMT1 (Table III) was 0.1 to 1 µM in each case.
In the case of `CCNC(=O)c1cc(Nc2nccc(NC)n2)ccc1Cl` [Compound 396], the results for the half-inhibitory concentration (IC50) at human EHMT2 913-1193 (Table III) and on EHMT1 (Table III) were > 10 µM and 1 to 10 µM, respectively.
In the same order, the values of `CNc1ccnc(Nc2ccc(OC)c(OCC3CCN(C4CC4)C3)c2)n1` (stereo not drawn) [Compound 411, N^2-(3-((1-cyclopropylpyrrolidin-3-yl)methoxy)-4-methoxyphenyl)-N^4-methylpyrimidine-2,4-diamine] are < 0.1 µM and < 0.1 µM.
Regarding `COc1ccc(Nc2nccc(NCC3CCN(C(C)=O)CC3)n2)cc1COCCN1CC(F)C1` [Compound 57], the concentration for half-maximal inhibition (IC50) on human EHMT2 913-1193 (Table II) and on EHMT1 (Table II) was 1 to 10 µM in each case.
With `COc1ccc(Nc2nccc(N3Cc4cn[nH]c4C3)n2)cc1OCCCN1CCCC1` [Compound 53], the 50% inhibitory concentration (IC50) at human EHMT2 913-1193 (Table II) and at EHMT1 (Table II) was 1 to 10 µM throughout.
`CNc1ccnc(Nc2ccc3cn(CCCN(C)C)nc3c2)n1` [Compound 405]: the IC50 at human EHMT2 913-1193 (Table III) and at EHMT1 (Table III) was > 10 µM in each case.
For `CNc1ccnc(Nc2ccc(OC)c(COC3CCN(C)C3)c2)n1` (stereo not drawn) [Compound 407, N^2-(4-methoxy-3-(((1-methylpyrrolidin-3-yl)oxy)methyl)phenyl)-N^4-methylpyrimidine-2,4-diamine], the IC50 at human EHMT2 913-1193 (Table III) and on EHMT1 (Table III) was 0.1 to 1 µM in each case.
In the case of `COc1ccc(Nc2cnnc(NCC3CCN(C(C)=O)CC3)c2)cc1OCCCN1CCCC1` [Compound 366], the IC50 at human EHMT2 913-1193 (Table III) and on EHMT1 (Table III) was 1 to 10 µM each time.
For `CNc1cc(C#N)nc(Nc2ccc(OC)c(OCCCN3CCCC3)c2)n1` [Compound 384], the IC50 on human EHMT2 913-1193 (Table III) and at EHMT1 (Table III) was > 10 µM in each case.
With `CNc1ccnc(Nc2ccc(OC)c(OCCCN3CCCC3)c2)c1` [Compound 379], the half-maximal inhibitory concentration (IC50) fell in the range of 0.1 to 1 µM at human EHMT2 913-1193 (Table III) and 1 to 10 µM at EHMT1 (Table III).
`COc1ccc(Nc2ccc3cn(C)nc3n2)cc1OCCCN1CCCC1` [Compound 402]: the IC50 at human EHMT2 913-1193 (Table III) and at EHMT1 (Table III) was > 10 µM throughout.
Turning to `CNc1ccnc(Nc2ccc(OC)c(OC[C@H](O)CN3CCCC3)c2)n1` (single isomer, unassigned) [Compound 376], the IC50 on human EHMT2 913-1193 (Table III) and on EHMT1 (Table III) was 1 to 10 µM throughout.
With `CNc1ccnc(Nc2ccc3ccn(CCN4CCCC4)c(=O)c3c2)n1` [Compound 381], the IC50 is 1 to 10 µM on human EHMT2 913-1193 (Table III) and > 10 µM on EHMT1 (Table III).
In the same order, the values of `CNc1ccnc(Nc2ccc(OC)c(OCCCN(C)C)c2)n1` [Compound 387] are 0.1 to 1 µM and < 0.1 µM.
In the same order, the values of `CCNC(=O)c1cc(Nc2nccc(NC)n2)ccc1OC` [Compound 395] are > 10 µM and > 10 µM.
As for `COc1ccc(Nc2nccc(NCC3CCNCC3)n2)cc1OCCCN1CCCC1` [Compound 90], the half-inhibitory concentration (IC50) on human EHMT2 913-1193 (Table II) and at EHMT1 (Table II) was < 0.1 µM throughout.
As for `COc1ccc(Nc2nccc(N)n2)cc1OCCCN1CCCC1` [Compound 369], the IC50 at human EHMT2 913-1193 (Table III) and at EHMT1 (Table III) was 0.1 to 1 µM in each case.
Consider `COc1ccc(Nc2nccc(NCC(=O)N(C)c3ccccc3)n2)cc1OCCCN1CCCC1` [Compound 52], for which the IC50 on human EHMT2 913-1193 (Table II) and at EHMT1 (Table II) was 1 to 10 µM throughout.
